The results in this text go back to paper PMC11550998, “Novel 5-HT7 receptor antagonists modulate intestinal immune responses and reduce severity of colitis” (American Journal of Physiology - Gastrointestinal and Liver …, 2024).

The target in data set [1] is T1, α2B (Homo sapiens, UniProt P18089).
T1 construct: NIMH Psychoactive Drug Screening Program (PDSP), assay service
In words: PDSP selectivity profiling, α2B. The class given is binding. The method, then:
(§1) In vitro assessments of MC-170073, MC-20078, and MC-230079 activity at the following targets were determined using the assay systems available through the Psychoactive Drug Screening Program (PDSP). Detailed protocols for each assay are available at https://pdsp.unc.edu/pdspweb/?site=assays. Receptors 5-HT1A, 5-HT1B, 5-HT1D, 5-HT1E, 5-HT2A, 5-HT2B, 5-HT2C, 5-HT3, 5-HT5A, 5-HT6, 5-HT7, α1A, α1B, α1D, α2A, α2B, α2C, benzodiazepine, β1, β2, β3, GABA-A, H1, H2, H3, H4, M1, M2, M3, M4, M5, δ-opioid, κ-opioid, and µ-opioid and transporters dopamine, norepinephrine, and serotonin were evaluated.

Data set [2] is described as follows: Plasma protein binding by equilibrium dialysis. The format is in vitro ADME. The settings on record: mouse. Here is the method:
Plasma protein binding was performed by using equilibrium dialysis (ED) ([17]). ED was performed using a 96-well equilibrium dialyzer with a molecular weight (MW) cutoff of 5 K (Harvard Apparatus, Holliston, MA) and placed in a dual-plate rotator set to maximum speed (Harvard Apparatus, Holliston, MA) located in a 37°C incubator with a 10% CO2 environment. After 22 h of dialysis, buffer and plasma were removed from each side of the dialysis plate. Samples were mixed with equal volumes of the opposite matrix (plasma or buffer) and stored at −20°C for future analyte quantitation.
Plasma concentrations were determined using an LC-MS/MS method. Briefly, 100-µL acetonitrile with an internal standard solution (Diltiazem, 0.1 μg/mL) was added to 50-µL plasma or tissue homogenate. After being vortexed for 1 min, the mixture was centrifuged at 3,000 g for 5 min. LC-MS/MS analysis was carried out using a high-performance liquid chromatography system consisting of an Agilent 1100 system interfaced to an API4000 SCIEX triple-quadrupole tandem mass spectrometer (Applied Biosystems/MDS Sciex, Foster City, CA). […] The detection and quantification of analytes were performed with the m/z transition 347/191 for MC-170073, MC-230078, and MC-230079, and m/z 415/178 for diltiazem.
For orientation: In equilibrium dialysis only unbound substance equilibrates across the membrane.

Data set [3] concerns the target T2, α2C (Homo sapiens, UniProt P18825).
T2 construct: NIMH Psychoactive Drug Screening Program (PDSP), assay service
Kind of data set: PDSP selectivity profiling, α2C. The class given is binding. Here is the method: as §1

The test system of data set [4] is CD4+CD45RBhigh T cell-induced colitis. Kind of data set: CD4+CD45RBhigh T cell-induced chronic colitis model. The format is in vivo, Rag1-/- mice. An excerpt:
C57BL/6 (Taconic, Cambridge City, IN) for the DSS model of colitis, as well as C57BL/6 and Rag1^−/− mice (Jackson Laboratory, Bar Harbor, ME) for the T-cell transfer model, were kept in sterilized, filter-topped cages under specific pathogen-free conditions upon arrival and fed autoclaved food. Male mice aged 8–10 wk were used for all experiments. Mice were acclimatized for 7 days before the start of any experiments. All experiments were approved by the animal ethics committee of McMaster University and conducted under Canadian guidelines for animal research.
Colitis was induced in Rag1^−/− mice by adoptive transfer of fluorescence-activated cell sorting (FACS)-sorted CD4^+CD45RB^high T cells, as described previously ([18]). Briefly, CD4^+ T cells were isolated from splenocytes of healthy C57BL/6 mice by the EasySep Mouse Naive CD4^+ T Cell Isolation Kit (StemCell Technology, Vancouver, Canada). Naive CD4^+ T cells were then labeled with PE-cy7-conjugated anti-mouse CD3 (BioLegend, San Diego, CA), allophycocyanin (APC)-conjugated anti-mouse CD4 (BD Biosciences), and fluorescein isothiocyanate (FITC)-conjugated anti-mouse CD45RB (BD Biosciences, Mississauga, Canada). CD4^+CD45RB^high T cells were sorted using a FACS Aria II flow cytometer (BD Biosciences, Mississauga, Canada). Cell viability was assessed using a Trypan blue assay before injection. Recipients were administered ∼5 × 10^5 sorted T cells via intraperitoneal injection.
For acute DSS-induced colitis, C576BL/6 mice were treated with MC-170073 (10 mg/kg of body wt) or vehicle (10% DMSO in normal saline) via intraperitoneal injection once daily for 6 days, starting 1 day before the beginning of DSS. In a separate experiment, C57BL/6 mice were orally administered with MC-230078 (10 mg/kg) or vehicle twice daily for 5 days, starting from the beginning of DSS. For chronic DSS-induced colitis, C57BL/6 mice were treated with MC-170073 (10 mg/kg ip) or vehicle once daily for 6 days, starting 1 day before the beginning of the third cycle. Last, for CD4^+CD45RB^high T cell-induced chronic colitis, reconstituted Rag1^−/− mice were orally administered MC-230078 (5 mg/kg or 10 mg/kg) or a vehicle twice daily for 10 days starting from week 6 post-reconstitution of T cells.
Disease activity index (DAI) is a combined score of weight loss, stool consistency, and fecal bleeding and was blindly assessed using a previously published scoring system ([19]). This scoring system was defined as follows: weight loss: 0 = no loss; 1 = 1–5%; 2 = 5–10%; 3 = 10–20%; 4 = 20%+; stool, 0 = normal; 2 = loose stool; 4 = diarrhea; and bleeding: 0 = no blood; 2 = hemoccult positive (Hemoccult II; Beckman Coulter, Fullerton, CA); and 4 = gross blood (blood around anus). DAI was measured across all days of DSS treatment. Macroscopic damage scores were blindly scored using a previously published scoring system for DSS-induced colitis ([19]).
Colonic myeloperoxidase (MPO) levels were measured following a published protocol ([19]). Briefly, colonic tissue samples were homogenized in ice-cold 50 mmol·L^−1 potassium phosphate buffer containing 0.5% hexadecyl trimethyl ammonium bromide (pH = 6.0) (Sigma). Homogenates were centrifuged, the supernatant was removed, and an aliquot was then added to a solution containing potassium phosphate buffer, O-dianisidine, and hydrogen peroxide (Sigma-Aldrich). The absorbance was measured at 450 nm by a spectrophotometer (model EL808, BioTek). MPO level was expressed in units per milligram of tissue, where 1 U is defined as the quantity of enzyme able to convert 1 μmol hydrogen peroxide to water per minute at room temperature.
Segments of the proximal colon were washed with PBS, fixed in 10% neutral-buffered formalin, washed with ethanol, and embedded in paraffin. […]

Where [5] appears, read: 10 mg/kg orally twice daily 10 days, vs vehicle.

T2 sequence (P18825 whole entry): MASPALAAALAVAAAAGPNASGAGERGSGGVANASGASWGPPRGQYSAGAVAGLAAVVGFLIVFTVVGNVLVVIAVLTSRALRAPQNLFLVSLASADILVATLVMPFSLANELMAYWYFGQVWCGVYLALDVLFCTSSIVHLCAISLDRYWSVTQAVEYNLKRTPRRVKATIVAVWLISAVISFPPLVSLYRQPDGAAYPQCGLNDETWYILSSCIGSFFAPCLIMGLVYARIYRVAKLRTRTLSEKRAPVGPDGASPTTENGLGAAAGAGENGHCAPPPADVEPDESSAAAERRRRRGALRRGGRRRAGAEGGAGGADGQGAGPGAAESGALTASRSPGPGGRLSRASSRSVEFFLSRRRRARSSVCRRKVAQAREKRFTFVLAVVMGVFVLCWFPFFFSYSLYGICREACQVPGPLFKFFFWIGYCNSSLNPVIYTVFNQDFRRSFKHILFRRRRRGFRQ
T1 sequence (P18089 whole entry): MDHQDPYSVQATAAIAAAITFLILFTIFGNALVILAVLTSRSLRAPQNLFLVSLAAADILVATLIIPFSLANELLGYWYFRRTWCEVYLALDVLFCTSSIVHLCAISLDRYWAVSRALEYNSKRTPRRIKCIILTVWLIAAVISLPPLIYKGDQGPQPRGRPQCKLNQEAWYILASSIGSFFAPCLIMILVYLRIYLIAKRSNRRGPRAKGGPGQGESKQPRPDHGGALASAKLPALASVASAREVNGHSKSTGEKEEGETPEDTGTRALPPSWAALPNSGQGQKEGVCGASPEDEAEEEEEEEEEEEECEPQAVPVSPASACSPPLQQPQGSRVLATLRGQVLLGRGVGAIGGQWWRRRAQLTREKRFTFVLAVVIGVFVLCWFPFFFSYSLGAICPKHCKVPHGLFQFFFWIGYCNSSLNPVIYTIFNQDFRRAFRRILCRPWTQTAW

Turning to `CCC1(CC)CC(CCN2CCN(c3ccc(O)cc3)CC2)OC1=O` (stereo not shown) [MC-170073], the values for the Ki in data set [1] and in data set [3] were 493 nM and 3.6 µM, respectively. Besides, the fraction unbound (usually free concentration divided by total concentration) at 22 h in data set [2] was 0.6.

Take `CCC1(CC)C[C@@H](CCN2CCN(c3ccc(O)cc3)CC2)OC1=O` [MC-230078]: the DAI entry in data set [4] (10 mg/kg orally twice daily 10 days from week 6, from day 4 of dosing, vs vehicle) is on record as “significant reduction”. Moreover, in data set [4] (setting [5]), the “colonic IFN-γ” value was “significant downregulation”, the “colonic IL-1β” value is listed as “significant downregulation”, the “colonic IL-6” value is “significant downregulation” and the “colonic MPO levels” value was “significant decrease”. In data set [4] (setting [5]), the “colonic TNF-α” value was “significant downregulation” and the macroscopic damage result is listed as “reduced”. The body weight change result in data set [4] (between the two drug-treated groups (5 and 10 mg/kg)) was “no difference”. In data set [4] (higher dosage (10 mg/kg) orally twice daily 10 days), the histological damage scores result is on record as “significantly lower”. Besides, the “colonic 5-HT levels” value in data set [4] (treated vs vehicle-treated mice) is “no differences”.
